Measurements as given in publication PMC7468285, “The operational model of allosteric modulation of pharmacological agonism” (Scientific Reports, 2020).
Several values for one entry are separate records, joined by “and”; a condition that tells them apart may be missing. Equal values may be shown once. Read-outs that look alike come from different tables or passages of the source.

How the values were obtained:
M1 muscarinic receptor [1] = biological target: T1, M1 muscarinic receptor (Homo sapiens, UniProt P11229); format: cell-based; conditions: for τA / EMAX: Table S3B, global fit; for τA: EMAX as shared parameter; for EMAX: EMAX estimated as shared parameter of all 4 curves; for α (factor of binding cooperativity) / β (factor of operational cooperativity): functional, global fit of Eq. (14)
T1 construct: expressed in transfected cells; host or cells: CHO cells
T1 sequence (P11229 1-460): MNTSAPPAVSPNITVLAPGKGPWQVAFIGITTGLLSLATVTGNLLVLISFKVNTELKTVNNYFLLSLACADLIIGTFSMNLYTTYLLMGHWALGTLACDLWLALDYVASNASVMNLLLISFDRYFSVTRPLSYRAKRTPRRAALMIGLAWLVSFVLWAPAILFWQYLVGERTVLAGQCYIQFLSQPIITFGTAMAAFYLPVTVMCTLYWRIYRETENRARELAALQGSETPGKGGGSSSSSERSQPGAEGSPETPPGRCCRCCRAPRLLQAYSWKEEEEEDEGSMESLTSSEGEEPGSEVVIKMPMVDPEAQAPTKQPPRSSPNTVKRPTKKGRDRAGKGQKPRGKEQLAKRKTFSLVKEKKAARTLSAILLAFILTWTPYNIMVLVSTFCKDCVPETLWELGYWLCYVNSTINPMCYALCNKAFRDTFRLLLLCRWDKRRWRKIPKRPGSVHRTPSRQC
Experimental: (§1) CHO cells were grown to confluence in 75 cm^2 flasks in Dulbecco’s modified Eagle’s medium (DMEM) supplemented with 10% fetal bovine serum. Two million cells were subcultured in 100 mm Petri dishes. The medium was supplemented with 5 mM sodium butyrate for the last 24 h of cultivation to increase receptor expression. Cells were washed with phosphate-buffered saline and manually harvested on day 5 after subculture and centrifuged for 3 min at 250 × g. The pellet was suspended in 10 ml of ice-cold homogenization medium (100 mM NaCl, 20 mM Na-HEPES, 10 mM EDTA, pH = 7.4) and homogenized on ice by two 30 s strokes using a Polytron homogenizer (Ultra-Turrax; Janke & Kunkel GmbH & Co. KG, IKA-Labortechnik, Staufen, Germany) with a 30-s pause between strokes. Cell homogenates were centrifuged for 5 min at 1,000 × g. The supernatant was collected and centrifuged for 30 min at 30,000 × g. Pellets were suspended in the washing medium (100 mM, 10 mM MgCl2, 20 mM Na-HEPES, pH = 7.4), left for 30 min at 4 °C, and then centrifuged again for 30 min at 30,000 × g. Resulting membrane pellets were kept at -80 °C until assayed.
Accumulation of inositol phosphates (IPX) was assayed in cells in suspension. IPX was determined after separation on ion-exchange columns (Dowex 1X8-200, Sigma, USA). Cells were harvested by mild trypsinization and resuspended in KHB and centrifuged 250 g for 3 min. Cells were resuspended in KHB supplemented with 500 nM [^3H]myo-inositol (ARC, USA) and incubated at 37 °C for 1 h. Then they were washed once with an excess of KHB, resuspended in KHB containing 10 mM LiCl, and incubated for 1 h at 37 °C in the presence of indicated concentrations of agonists and/or allosteric modulator. Incubation was terminated by the addition of 0.5 ml of stopping solution (chloroform: methanol: HCl; 2: 1: 0.1) and placed in 4 °C for 1 h. An aliquot (0.6 ml) of the upper (aqueous) phase was taken and loaded onto ion-exchange columns. Columns were washed with 10 ml of deionized water and 20 ml of 60 mM ammonium formate/5 mM sodium borate solution. IPX were collectively eluted from columns by 4 ml of 1 M ammonium formate-0.1 M/formic acid buffer.
(§2) Where [D] and KD are concentration and equilibrium dissociation constant of the tracer ([^3H]NMS), [A] and KA are concentration and equilibrium dissociation constant of the agonist. Parameters KB and α1 obtained by fitting of Eq. (29) to binding data in the absence of the agonist.31 Concentration-responsecurvey=basal+EMAX′-basal∗x^nH/x^nH+EC50nH where y is response normalized to basal activity in the absence of allosteric ligand at concentration x, E'MAX is the apparent maximal response, EC50 is concentration causing half-maximal effect, and nH is Hill coefficient.

M1 muscarinic receptor [2] = biological target: T1, M1 muscarinic receptor; format: binding
Experimental: as §1
All radioligand binding experiments were optimized and carried out according to general guidelines. […] Agonist binding was determined in competition experiments with 1 nM [^3H]NMS. Nonspecific binding was determined in the presence of 10 μM atropine. Incubation was terminated by filtration through Whatman GF/C glass fibre filters (Whatman) using a Brandel harvester (Brandel, USA). […] The filters were cooled and counted in a Wallac Microbeta scintillation counter (Wallac, Finland).
Data from experiments were processed in Libre Office and then analysed and plotted using program Grace (https://plasma-gate.weizmann.ac.il/Grace). […] Inhibition constant KI was calculated as:28 KI=IC50/1+D/KD where [D] is the concentration of radioligand used and KD is its equilibrium dissociation constant.
Interaction between tracer ([^3H]NMS) and allosteric modulator:29 y=D+KD/D+KDKB+x/KB+xα where y is specific radioligand binding at concentration x of the allosteric modulator as per cent of binding in the absence of allosteric modulator. Where [D] and KD are concentration and equilibrium dissociation constant of the tracer ([^3H]NMS). The equilibrium dissociation constant of the allosteric modulator KB and factor of binding cooperativity α are obtained by fitting of Eq. (29) to data.
as §2, with “Interaction between tracer ([^3H]NMS) and allosteric modulator in the presence of an agonist at fixed concentration:30 y=D+KD/D+KDAKB+Bα2+KAKB+B/KAKB+Bα1 where y is specific radioligand binding at concentration x of the allosteric modulator as per cent of binding in the absence of allosteric modulator. Where” for “Where”

SMILES: Cc1ccccc1CN1CCC(N2CCC(n3c(=O)[nH]c4ccccc43)CC2)CC1 [TBPB, 3-[1-[1-[(2-methylphenyl)methyl]piperidin-4-yl]piperidin-4-yl]-1H-benzimidazol-2-one]
- E’MAX (M1 muscarinic receptor [1]): 56.0 ± 2.2 and 57.8 ± 3.3 and 57.9 ± 1.4
- E′MAX of response compared with carbachol (M1 muscarinic receptor [1]): close to E′MAX of full agonist carbachol
- basal (M1 muscarinic receptor [1]): 52.7 and 53.2 and 51.3
- effect on EC′50 of carbachol and iperoxo (M1 muscarinic receptor [1]): increased EC′50 values
- nH (M1 muscarinic receptor [1]): 1.15 ± 0.18 and 1.18 ± 0.20 and 0.85 ± 0.15
- binding cooperativity α in functional experiments compared with binding experiments (M1 muscarinic receptor [1]; Figs. 14 and 15 vs Fig. 12): about twice stronger
- τA (M1 muscarinic receptor [1]): 1.26 ± 334
- EMAX (M1 muscarinic receptor [1]): 98 ± 53
- effect on E′MAX of carbachol and iperoxo (M1 muscarinic receptor [1]; fixed concentrations of allosteric ligand): decreased E′MAX values
- α (factor of binding cooperativity) (M1 muscarinic receptor [1]; with carbachol): 0.48 ± 0.05
- β (factor of operational cooperativity) (M1 muscarinic receptor [1]; with carbachol): 0.80 ± 0.05
- α (factor of binding cooperativity) (M1 muscarinic receptor [1]; with iperoxo): 0.51 ± 0.08
- β (factor of operational cooperativity) (M1 muscarinic receptor [1]; with iperoxo): 0.78 ± 0.08
- E’MAX (M1 muscarinic receptor [1]; iperoxo + 1 µM TBPB): 59.7 ± 3.9 fold-over basal
- basal (M1 muscarinic receptor [1]; iperoxo + 1 µM TBPB): 51.3 fold-over basal
- nH (M1 muscarinic receptor [1]; iperoxo + 1 µM TBPB): 1.18 ± 0.20
- E’MAX (M1 muscarinic receptor [1]; iperoxo + 3 µM TBPB): 58.0 ± 4.8 fold-over basal
- basal (M1 muscarinic receptor [1]; iperoxo + 3 µM TBPB): 52.7 fold-over basal
- nH (M1 muscarinic receptor [1]; iperoxo + 3 µM TBPB): 0.82 ± 0.20
- E’MAX (M1 muscarinic receptor [1]; iperoxo + 10 µM TBPB): 57.6 ± 2.9 fold-over basal
- basal (M1 muscarinic receptor [1]; iperoxo + 10 µM TBPB): 53.2 fold-over basal
- nH (M1 muscarinic receptor [1]; iperoxo + 10 µM TBPB): 1.19 ± 0.22
- E’MAX (apparent maximal response) (M1 muscarinic receptor [1]; ligand alone, Eq. (31)): 54.4 ± 0.9 fold-over basal
- nH (slope) (M1 muscarinic receptor [1]; ligand alone, Eq. (31)): 1.01 ± 0.08
- operational cooperativity β (M1 muscarinic receptor [1]; with both carbachol and iperoxo, indicated by E′MAX change): < 1
- αNMS (factor of binding cooperativity with NMS) (M1 muscarinic receptor [2]; Eq. (29)): 0.002 ± 0.001
- inhibition of [3H]NMS binding (M1 muscarinic receptor [2]; allosteric ligand alone): completely inhibited
- αcarbachol (factor of binding cooperativity with carbachol) (M1 muscarinic receptor [2]; binding experiments, Eq. (30)): 0.7 ± 0.3
- αiperoxo (factor of binding cooperativity with iperoxo) (M1 muscarinic receptor [2]; binding experiments, Eq. (30)): 0.8 ± 0.4
- decrease in affinity of [3H]NMS (M1 muscarinic receptor [2]; fit of Eq. (29), TBPB estimate with high uncertainty): 500 fold
- binding cooperativity with carbachol and iperoxo (M1 muscarinic receptor [2]; fit of Eq. (30), high degree of uncertainty): slightly negative

SMILES: C[N+](C)(C)CC#CCOC1=NOCC1 [iperoxo]
- τA (M1 muscarinic receptor [1]): 1.97 ± 708
- EMAX (M1 muscarinic receptor [1]): 98 ± 53
- basal (M1 muscarinic receptor [1]; agonist alone): 1 fold-over basal
- efficacy ranking (M1 muscarinic receptor [1]; functional experiments): greater efficacy than carbachol
- E’MAX (apparent maximal response) (M1 muscarinic receptor [1]; ligand alone, Eq. (31)): 64.7 ± 0.5 fold-over basal
- nH (slope) (M1 muscarinic receptor [1]; ligand alone, Eq. (31)): 1.04 ± 0.02
- pEC50 (M1 muscarinic receptor [1]; ligand alone, Eq. (31)): 9.42 ± 0.01
- operational efficacy τ (τA / τB) (M1 muscarinic receptor [1]; ligand alone, Eq. […]): 1.86 ± 0.04
- pKA / pKB (functional) (M1 muscarinic receptor [1]; ligand alone, Eq. […]): 8.96 ± 0.02
- flow (fraction of low-affinity sites) (M1 muscarinic receptor [2]; Eq. (27)): 51 ± 5%
- high-affinity binding (candidate KA) (M1 muscarinic receptor [2]; competition with [3H]NMS, high-affinity sites): 200 pM
- pIC50high (M1 muscarinic receptor [2]; high-affinity sites, 1 nM [3H]NMS, Eq. (27)): 8.99 ± 0.05
- pKIhigh (M1 muscarinic receptor [2]; high-affinity sites, 1 nM [3H]NMS, calculated from IC50 by Eq. (28)): 9.70 ± 0.05
- pIC50low (M1 muscarinic receptor [2]; low-affinity sites, 1 nM [3H]NMS, Eq. (27)): 5.96 ± 0.04
- pKIlow (M1 muscarinic receptor [2]; low-affinity sites, 1 nM [3H]NMS, calculated from IC50 by Eq. (28)): 6.66 ± 0.04
